Patent US6689803B2, “Compositions and methods for treating surgical adhesions” (Angiotech Pharmaceuticals, Inc., priority 1996, dated 2004)
Values after ≈ are worked out from the molar mass of the structure shown.

Tests used:
neutrophils [1] = settings: human, 1 h, 46 µM
Experimental: Neutrophils were prepared from freshly collected human citrated whole blood. Briefly, 400 ml of blood were mixed with 80 ml of 4% dextran T500 (Phamacia LKB, Biotechnology AB Uppsala, Sweden) in HBSS and allowed to settle for 1 hour. Plasma was collected continuously and 5 ml applied to 5 ml of Ficoll Paque (Pharmacia) in 15 ml polypropylene tubes (Corning, N.Y.). Following centrifugation at 500 g for 30 minutes, the neutrophil pellets were washed free of erythrocytes by 20 seconds of hypotonic shock. Neutrophils were resuspended in HBSS, kept on ice and used for experiments within 3 hours. Neutrophil viability and purity was always greater than 90%.
To determine the effect of the anti-microtubule agents on neutrophil viability the release of the cytoplasmic marker enzyme, lactate dehydrogenase (LDH) was measured. Control tubes containing cells with drug (crystals absent) from degranulation experiments were also assayed for LDH.

synovial fibroblasts = assay: Synoviocyte proliferation (trypan blue dye exclusion); settings: 24 hours
neutrophils [2] = assay: Neutrophil degranulation assay (myeloperoxidase, lysozyme release); format: cell-based, human
Experimental: (§1) Neutrophil viability and purity was always greater than 90%.
One and a half milliliter Eppendorf tubes containing either 25 mg of CPPD or 1 mg of zymosan were preheated to 37° C. 0.5 ml of cells at 37° C. were added followed by vigorous shaking to initiate the reactions. At appropriate times, tubes were centrifuged at 10,000 g for 10 seconds and 0.4 ml of supernatant was stored at −20° C. for later assay.
Lysozyme was measured by the decrease in absorbance at 450 nm of a Micrococcus lysodeikticus suspension. Briefly, Micrococcus lysodeikticus was suspended at 0.1 mg/ml in 65 mM potassium phosphate buffer, pH 6.2 and the absorbance at 450 nm was adjusted to 0.7 units by dilution. The crystal (or zymosan) and cell supernatant (100 μl) was added to 2.5 ml of the Micrococcus suspension and the decrease in absorbance was monitored. Lysozyme standards (chicken egg white) in the 0 to 2000 units/ml range were prepared and a calibration graph of lysozyme concentration against the rate of decrease in the absorbance at 450 nm was obtained.
Myeloperoxidase (MPO) activity was measured by the increase in absorbance at 450 nm that accompanies the oxidation of dianisidine. 7.8 mg of dianisidine was dissolved in 100 ml of 0.1 M citrate buffer, pH 5.5 at […] by sonication. To a 1 ml cuvette, 0.89 ml of the dianisidine solution was added, followed by 50 μl of 1% Triton x 100, 10 μl of a 0.05% hydrogen peroxide in water solution and 50 μl of crystal-cell supernatant. MPO activity was determined from the change in absorbance (450 nm) per minute, Delta Å 450, using the following equation: […]

EOMA cells [3] = assay: Endothelial cell apoptosis (DAPI staining); format: cell-based; settings: 24 hours
Experimental: The cells were fixed with 3.7% formaldehyde in phosphate buffered saline for 20 minutes, stained with DAPI (4′-6-diaminido-2-phenylindole), 1 ug/ml, and examined with a 40×objective under epifluorescent optics. Apoptotic cells were evaluated by scoring cells for fragmented nuclei and condensed chromatin.

[4] = Solubility / complexation of paclitaxel with cyclodextrins; format: physicochemical
Experimental: The mobile phase was composed of a mixture of acetonitrile, methanol and water (58:5:37) at a flow rate of 1.0 ml/minute.

chondrocytes = assay: Viability of non-proliferating chondrocytes (trypan blue); format: cell-based; settings: up to 10^−5 M, 72 hours
Description: While it is important that a disease-modifying agent be capable of strongly inhibiting a variety of inappropriate cellular activities (proliferation, inflammation, proteolytic enzyme production) which occur in excess during the development of chronic inflammation, it must not be toxic to the normal tissues. It is particularly critical that normal cells not be damaged, as this would lead to progression of the disease.

neutrophils [5] = assay: Neutrophil chemiluminescence assay (opsonized CPPD crystals or zymosan); format: cell-based, human; settings: Homo sapiens, Neutrophil, 28 μM, read-out: inhibition of the peak chemiluminescence response
Experimental: All experiments that studied neutrophil responses to crystals or zymosan in the presence of paclitaxel were performed using plasma opsonized CPPD or zymosan. Opsonization of crystals or zymosan was done with 50% heparinized plasma at a concentration of 75 mg of CPPD or 12 mg of zymosan per ml of 50% plasma Crystals or zymosan were incubated with plasma for 30 minutes at 37° C. and then washed in excess HBSS.
as §1
A stock solution of LY290181 at 100 μM in HBSS was freshly prepared.
All chemiluminescence studies were performed at a cell concentration of 5,000,000 cells/ml in HBSS with CPPD (50 mg/ml). In all experiments 0.5 ml of cells was added to 25 mg of CPPD or 0.5 mg of zymosan in 1.5 ml capped Eppendorf tubes. 10 μl of luminol dissolved in 25% DMSO in HBSS was added to a final concentration of 1 μM and the samples were mixed to initiate neutrophil activation by the crystals or zymosan. Chemiluminescence was monitored using an LKB Luminometer (Model 1250) at 37° C. for 20 minutes with shaking immediately prior to measurements to resuspend the crystals or zymosan. Control tubes contained cells, drug and luminol (crystals absent).

collagenase (MMP-1) mRNA = assay: IL-1 induced collagenase mRNA expression in chondrocytes (Northern blot); format: cell-based, calf
Experimental: Total RNA was isolated, and the MMP-1 mRNA levels were determined by Northern blot analysis. The blots were subsequently stripped and reprobed with ^32P-radiolabeled rat GAPDH cDNA, which was used as a housekeeping gene. The results shown are representative of four independent experiments. Quantitation of collagenase-1 and stromelysin-expression mRNA levels. The MMP-1 and MMP-3 expression levels were normalized with GAPDH.
Primary chondrocyte cultures were freshly isolated from calf cartilage. The cells were plated at 2.5×10^6 per ml in 100×20 mm culture dishes and incubated in Ham's F12 medium containing 5% FBS overnight at 37° C. […] IL-1 (20 ng/ml) was then added to each plate and the plates incubated for an additional 18 hours. Total RNA was isolated by the acidified guanidine isothiocyanate method and subjected to electrophoresis on a denatured gel. Denatured RNA samples (15 μg) were analyzed by gel electrophoresis in a 1% denatured gel, transferred to a nylon membrane and hydridized with the ^32P-labeled collagenase cDNA probe. ^32P-labeled glyceraldehyde phosphate […] (GAPDH) cDNA as an internal standard to ensure roughly equal loading. The exposed films were scanned and quantitatively analyzed with ImageQuant.

EOMA cells [6] = assay: Endothelial cell proliferation (trypan blue exclusion); format: cell-based; settings: 48 hours
Experimental: Following the incubation, the number of viable cells were determined using the trypan blue exclusion assay. […] All cell toxicity assays were performed three times, and each individual measurement was made in triplicate.

CC(=O)O[C@H]1C(=O)[C@@]2(C)[C@H]([C@H](OC(=O)c3ccccc3)[C@]3(O)C[C@H](OC(=O)[C@H](O)[C@@H](NC(=O)c4ccccc4)c4ccccc4)C(C)=C1C3(C)C)[C@]1(OC(C)=O)CO[C@@H]1C[C@@H]2O [paclitaxel]
LDH release (neutrophils [1]): less than 5 % of total | toxicity to synovial fibroblasts (synovial fibroblasts; 10^−6 M and 10^−5 M): toxic | inhibiting proliferation of the synoviocytes at concentrations as low as (synovial fibroblasts): 10^−7 M | lysozyme release (neutrophils [2]; 28 μM, plasma opsonized CPPD): reduced lysozyme release | inhibition at 28 µM (neutrophils [2]; Homo sapiens, Neutrophil, 28 μM, opsonized zymosan, after 9 minutes incubation, read-out: inhibition of MPO release): 50% | myeloperoxidase release (neutrophils [2]; plasma opsonized CPPD (FIG. 5A: 28 μM)): significantly inhibited CPPD-induced myeloperoxidase release at all times | concentrations inducing endothelial cell apoptosis (EOMA cells [3]): greater than 10^−8 M | solubility ([4]; 50% HPβ-CD in water, aqueous with cosolvent or surfactant or cyclodextrin, thermodynamic from solid, 50% solution of HPβ-CD in water, 37° C.): 3200 µg/mL (≈ 3.75 mM) | increase over the solubility of paclitaxel in water ([4]; 50% solution of HPβ-CD in water, 37° C.): ~2000 fold | apparent stability constant ([4]; HPβ-CD in the presence of 50% ethanol): 26.57 M⁻¹ | stability constant, first order complex ([4]; HPβ-CD, 37° C.): 7.2 M⁻¹ | stability constant lower than in the absence of ethanol ([4]; HPβ-CD, 50% ethanol): about 300 times | stability constant, first order complex ([4]; HPγ-CD, 37° C.): 5.8 M⁻¹ | stability constant, first order complex ([4]; γ-CD, 37° C.): 3.1 M⁻¹ | viability of normal non-proliferating cells (chondrocytes): does not affect the viability | inhibition at 28 µM (neutrophils [5]; plasma opsonized CPPD): 52% | inhibition at 28 µM (neutrophils [5]; plasma opsonized zymosan): 45% | concentration inhibiting collagenase expression in vitro (collagenase (MMP-1) mRNA): 10^−6 M | collagenase mRNA levels (collagenase (MMP-1) mRNA; 10^−5 M, pretreatment 24 hours, IL-1): complete inhibition | inhibition of endothelial cell proliferation (EOMA cells [6]; 10^−7M or greater): completely inhibited cell proliferation | inhibition at 0.01 µM (EOMA cells [6]; Endothelial cell, 10^−8M): > 50%
